# Data taken from patent US20120277184A1 (priority 2004, published 2012).
# Where two headings read alike, the source gives them in different places.
# Key:
# [1] = target: LeTx (Bacillus anthracis, UniProt P13423); settings: raw 264.7 cells
# [2] = target: T1, α-HL (Staphylococcus aureus, UniProt P09616)
# [3] = target: T1, α-HL; type: biochemical; settings: read-out: Inhibition of trans-membrane conductance IC50
# [4] = target: ε-toxin (Clostridium perfringens, UniProt Q02307)
# [5] = rat, in vivo; cited from earlier work
# ε-toxin, sequence (Q02307 46-306 limits assumed): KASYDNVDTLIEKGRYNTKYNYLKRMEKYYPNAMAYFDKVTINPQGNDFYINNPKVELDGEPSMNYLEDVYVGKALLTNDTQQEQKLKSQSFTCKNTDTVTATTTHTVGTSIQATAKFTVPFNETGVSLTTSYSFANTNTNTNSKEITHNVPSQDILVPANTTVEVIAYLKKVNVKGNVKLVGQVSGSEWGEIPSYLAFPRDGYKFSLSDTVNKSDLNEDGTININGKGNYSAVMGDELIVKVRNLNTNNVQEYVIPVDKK
# T1 sequence (P09616 27-319 limits assumed): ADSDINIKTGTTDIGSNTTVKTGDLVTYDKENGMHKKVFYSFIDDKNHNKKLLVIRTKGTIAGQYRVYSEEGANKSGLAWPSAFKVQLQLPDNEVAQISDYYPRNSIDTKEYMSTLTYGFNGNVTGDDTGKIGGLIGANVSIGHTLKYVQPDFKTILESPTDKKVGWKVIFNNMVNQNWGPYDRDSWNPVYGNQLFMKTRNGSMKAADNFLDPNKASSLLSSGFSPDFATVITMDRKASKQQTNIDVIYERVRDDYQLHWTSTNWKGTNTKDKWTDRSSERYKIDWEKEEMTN
# LeTx, sequence (P13423 197-764 limits assumed): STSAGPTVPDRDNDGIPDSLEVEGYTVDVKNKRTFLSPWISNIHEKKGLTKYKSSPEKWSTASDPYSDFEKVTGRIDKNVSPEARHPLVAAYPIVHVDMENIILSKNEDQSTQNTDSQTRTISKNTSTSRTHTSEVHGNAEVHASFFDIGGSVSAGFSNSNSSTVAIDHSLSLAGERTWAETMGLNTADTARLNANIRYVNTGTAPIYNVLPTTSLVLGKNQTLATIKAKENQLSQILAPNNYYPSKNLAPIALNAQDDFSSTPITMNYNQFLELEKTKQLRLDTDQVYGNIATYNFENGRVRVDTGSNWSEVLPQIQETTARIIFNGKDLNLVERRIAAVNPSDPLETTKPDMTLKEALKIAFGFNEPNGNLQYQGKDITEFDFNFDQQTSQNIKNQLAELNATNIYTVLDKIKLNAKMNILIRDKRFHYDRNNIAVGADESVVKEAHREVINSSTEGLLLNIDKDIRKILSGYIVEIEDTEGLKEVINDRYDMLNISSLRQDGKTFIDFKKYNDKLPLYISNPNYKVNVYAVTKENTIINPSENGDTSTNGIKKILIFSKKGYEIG
compound,measurement,setting,value
Cc1ccc(CNC[C@H]2O[C@@H]3O[C@H]4[C@H](O)[C@@H](O)[C@@H](O[C@H]5[C@H](O)[C@@H](O)[C@@H](O[C@H]6[C@H](O)[C@@H](O)[C@@H](O[C@H]7[C@H](O)[C@@H](O)[C@@H](O[C@H]8[C@H](O)[C@@H](O)[C@@H](O[C@H]9[C@H](O)[C@@H](O)[C@@H](O[C@H]2[C@H](O)[C@H]3O)O[C@@H]9CNCc2ccc(C)cc2)O[C@@H]8CNCc2ccc(C)cc2)O[C@@H]7CNCc2ccc(C)cc2)O[C@@H]6CNCc2ccc(C)cc2)O[C@@H]5CNCc2ccc(C)cc2)O[C@@H]4CNCc2ccc(C)cc2)cc1 [Compound 8],IC50,[1],0.5 ± 0.2 µM
O[C@@H]1[C@@H](O)[C@H]2O[C@H]3[C@H](O)[C@@H](O)[C@@H](O[C@H]4[C@H](O)[C@@H](O)[C@@H](O[C@H]5[C@H](O)[C@@H](O)[C@@H](O[C@H]6[C@H](O)[C@@H](O)[C@@H](O[C@H]7[C@H](O)[C@@H](O)[C@@H](O[C@H]8[C@H](O)[C@@H](O)[C@@H](O[C@@H]1[C@@H](CNCc1ccc(Cl)cc1)O2)O[C@@H]8CNCc1ccc(Cl)cc1)O[C@@H]7CNCc1ccc(Cl)cc1)O[C@@H]6CNCc1ccc(Cl)cc1)O[C@@H]5CNCc1ccc(Cl)cc1)O[C@@H]4CNCc1ccc(Cl)cc1)O[C@@H]3CNCc1ccc(Cl)cc1 [Compound 9],IC50,[1],5.4 ± 0.8 µM
O[C@@H]1[C@@H](O)[C@H]2O[C@H]3[C@H](O)[C@@H](O)[C@@H](O[C@H]4[C@H](O)[C@@H](O)[C@@H](O[C@H]5[C@H](O)[C@@H](O)[C@@H](O[C@H]6[C@H](O)[C@@H](O)[C@@H](O[C@H]7[C@H](O)[C@@H](O)[C@@H](O[C@H]8[C@H](O)[C@@H](O)[C@@H](O[C@@H]1[C@@H](CNCc1ccc(Br)cc1)O2)O[C@@H]8CNCc1ccc(Br)cc1)O[C@@H]7CNCc1ccc(Br)cc1)O[C@@H]6CNCc1ccc(Br)cc1)O[C@@H]5CNCc1ccc(Br)cc1)O[C@@H]4CNCc1ccc(Br)cc1)O[C@@H]3CNCc1ccc(Br)cc1 [Compound 10],Inhibition of α-HL hemolytic activity (in words),[2],did not display any activity
same,IC50,[2]; erythrocytes,> 100 µM
CC(C)(C)OC(=O)NC(CCCN)C(=O)NCC1OC2OC3C(CNC(=O)C(CCCN)NC(=O)OC(C)(C)C)OC(OC4C(CNC(=O)C(CCCN)NC(=O)OC(C)(C)C)OC(OC5C(CNC(=O)C(CCCN)NC(=O)OC(C)(C)C)OC(OC6C(CNC(=O)C(CCCN)NC(=O)OC(C)(C)C)OC(OC7C(CNC(=O)C(CCCN)NC(=O)OC(C)(C)C)OC(OC8C(CNC(=O)C(CCCN)NC(=O)OC(C)(C)C)OC(OC1C(O)C2O)C(O)C8O)C(O)C7O)C(O)C6O)C(O)C5O)C(O)C4O)C(O)C3O (stereo not shown) [Compound 11],IC50,[3],~0.05 µM
same,IC50,[2],3.3 µM
same,Inhibition of α-HL hemolytic activity (in words),[2],inhibits α-HL
CC(C)(C)OC(=O)NC(CCCN)C(=O)NCC1OC2OC3C(CNC(=O)C(CCCN)NC(=O)OC(C)(C)C)OC(OC4C(CNC(=O)C(CCCN)NC(=O)OC(C)(C)C)OC(OC5C(CNC(=O)C(CCCN)NC(=O)OC(C)(C)C)OC(OC6C(CNC(=O)C(CCCN)NC(=O)OC(C)(C)C)OC(OC7C(CNC(=O)C(CCCN)NC(=O)OC(C)(C)C)OC(OC8C(CNC(=O)C(CCCN)NC(=O)OC(C)(C)C)OC(OC9C(CNC(=O)C(CCCN)NC(=O)OC(C)(C)C)OC(OC1C(O)C2O)C(O)C9O)C(O)C8O)C(O)C7O)C(O)C6O)C(O)C5O)C(O)C4O)C(O)C3O (stereo not shown) [Compound 12],IC50,[2],> 100 µM
Cc1ccc(CNCC2OC3OC4C(CNCc5ccc(C)cc5)OC(OC5C(CNCc6ccc(C)cc6)OC(OC6C(CNCc7ccc(C)cc7)OC(OC7C(CNCc8ccc(C)cc8)OC(OC8C(CNCc9ccc(C)cc9)OC(OC9C(CNCc%10ccc(C)cc%10)OC(OC2C(O)C3O)C(O)C9O)C(O)C8O)C(O)C7O)C(O)C6O)C(O)C5O)C(O)C4O)cc1 (stereo not shown) [Compound 5105],IC50,[4],20 ± 10 µM
same,Inhibition of ε-toxin cytotoxicity / protection of MDCK cells (in words),[4],protection
OC1C2OC(CNCc3ccc(Cl)cc3)C(OC3OC(CNCc4ccc(Cl)cc4)C(OC4OC(CNCc5ccc(Cl)cc5)C(OC5OC(CNCc6ccc(Cl)cc6)C(OC6OC(CNCc7ccc(Cl)cc7)C(OC7OC(CNCc8ccc(Cl)cc8)C(OC8OC(CNCc9ccc(Cl)cc9)C(O2)C(O)C8O)C(O)C7O)C(O)C6O)C(O)C5O)C(O)C4O)C(O)C3O)C1O (stereo not shown) [Compound 5130],IC50,[4],21 ± 9 µM
OC1C2OC(CNCc3ccc(Br)cc3)C(OC3OC(CNCc4ccc(Br)cc4)C(OC4OC(CNCc5ccc(Br)cc5)C(OC5OC(CNCc6ccc(Br)cc6)C(OC6OC(CNCc7ccc(Br)cc7)C(OC7OC(CNCc8ccc(Br)cc8)C(OC8OC(CNCc9ccc(Br)cc9)C(O2)C(O)C8O)C(O)C7O)C(O)C6O)C(O)C5O)C(O)C4O)C(O)C3O)C1O (stereo not shown) [Compound 5137],IC50,[4],20 ± 1 µM
β-cyclodextrin [β-CD],Bioavailability,[5],0.1-4%
